From patent US20230301299A1, “DISINFECTING FORMULATIONS WITH CARVACROL” (priority 2022, published 2023)

Legend:
[1] = test system: Staphylococcus aureus; assay: minimum inhibitory concentration test (normalized T0, growth after neutralisation); format: cell-based; details: for inhibitory effect (normalized T0, lower = increased inhibitory effect): FIG. 1, 0.5% essential oil compound, 5 minute contact time, 24 hour growth
Experimental: Various essential oil compounds were evaluated in a minimum inhibitory concentration test (e.g., against Staphylococcus aureus), to evaluate the inhibiting characteristics of the various tested compounds. […] Each candidate essential oil compound active was tested at 0.5% concentration, with 1% sodium lauryl sulfate (SLS), with a 5 minute contact time. As those of skill in the art will appreciate, the testing was conducted following EPA microbiology efficacy protocols, where the candidate active to be tested is applied to an inoculum (e.g., Staphylococcus aureus), and after a given contact time (e.g., 5 minutes), the active being tested is neutralized (e.g., with growth media), and the treated inoculum is allowed to grow out over a period of 24 hours. After the 24 hour growth period, an automated plate reader is used to measure inoculum growth, and the results are tabulated, relative to a control standard, which was not contacted with any active. Such testing therefore allows determination of which candidate actives provide for an inhibitory effect relative to a target microbe, as well as information relative to which candidate actives may be better than others.
Based on the results seen in FIG. 1, carvacrol was identified as a good candidate for further study. […] All tested samples included 1% SLS, with 0.5% of the shown co-surfactant, and 0.2% of the shown essential oil compound, with the results averaged over 3 contact times of 5, 15, and 30 minutes. […] For example, the amine oxide, sophorolipid, alkylpolyglycoside, and alcohol ethoxylate show such results, particularly in combination with carvacrol. For this reason, such surfactants may be avoided, in at least some embodiments of the present invention.
All tested samples included 1.5% SLS as the primary surfactant, with 1% of the shown essential oil compound, and 1% of the tested co-surfactant.
In particular, FIG. 5 plots change in T0 (ΔT0) compared to carvacrol as used alone (i.e. with no secondary essential oil compound).

[2] = test system: Staphylococcus aureus; assay: log reduction, EPA germicidal spray test (GST) / OECD quantitative method; format: cell-based; details: FIG. 7; 1% SLS, 0.5% second alkyl sulfate, 0.4% silicate buffer, 0.25% chelating agent, carvacrol 0.2% up to 1%; 3 and 5 minute contact times
Experimental: Tests were performed under standards promulgated by the EPA (e.g., the EPA's germicidal spray test “GST”) and the OECD (e.g., the Organization for Economic Co-Operation and Development). The OECD standards include an evaluation of the tested compositions ability to work in an environment where the target surface being cleaned includes soiling. The GST test is carried out according to the EPA's Standard Operating Procedure for Germicidal Spray Products as Disinfectants (GSPT): Testing of Staphylococcus aureus, Pseudomonas aeruginosa, and Salmonella enterica, published under SOP MB-06-09, which is herein incorporated by reference in its entirety. Such is available at https://www.epa.gov/sites/default/files/2018-01/documents/mb-06-09,pdf. The OECD test is carried out according to the EPA's Standard Operating Procedure for OECD Quantitative Method for Evaluating Bactericidal and Mycobactericidal Activity of Microbicides Used on Hard, Non-Porous Surfaces, published under SOP MB-25-05, which is herein incorporated by reference in its entirety. Such is available at https://www.epa.gov/sites/default/files/2019-05/documents/mb-25-05.pdf.

[3] = FIG. 2, 1% SLS, 0.5% co-surfactant, 0.2% essential oil compound, averaged over contact times of 5, 15 and 30 minutes

| Compound | inhibitory effect (normalized T0, lower = increased inhibitory effect) ([1]; 1% SLS) | inhibitory effect (normalized T0) ([1]; FIG. 3, 1.5% SLS, 1% essential oil compound, 1% co-surfactant) | log reduction against Staphylococcus aureus [2] | inhibitory effect (normalized T0) [1, 3] |
| --- | --- | --- | --- | --- |
| Cc1ccc(C(C)C)cc1O [carvacrol] | best inhibitory effect | lowest T0 values | increased log reduction with increasing carvacrol concentration | – |
| Cc1ccc(C(C)C)c(O)c1 [thymol, reference compound] | some inhibitory effect | – | – | – |
| alcohol ethoxylate | – | – | – | opposite of an inhibitory effect |
| alkylpolyglycoside | – | – | – | opposite of an inhibitory effect |
| sophorolipid | – | – | – | opposite of an inhibitory effect |
